According to patent US20200046774A1, “COMPOSITION FOR PREVENTING OR TREATING BONE DISEASES WHICH HAS EXCELLENT BONE REGENERATION EFFECT” (KOREA UNIVERSITY RESEARCH AND BUSINESS FOUNDATION, priority 2017, published 2020):

How the values were obtained:
[1] = system: HGPRT knockout cell line of Example 14; settings: after 9 days of 6-TG treatment, in comparison to the TDF cell line of Example 3; FIG. 20
[2] = system: TDF cell line of Example 3; assay: Evaluation of apoptosis by gancyclovir treatment (HSV-tk kill switch); assay type: cell-based; settings: 0, 50 and 500 μg/ml, 72 hours to 124 hours; depending on concentration and time; FIGS. 12 and 13
Method: TDF cell line of Example 3, a cell line of Example 3 was treated with gancyclovir in concentrations of 0 μg/ml, 50 μg/ml and 500 μg/ml, respectively, and the number of cells was observed and analyzed for a period of 72 hours to 124 hours, as shown in FIGS. 12 and 13.

[3] = system: alkaline phosphatase (ALP); assay: ALP activity (early osteogenic induction ability), OIM or GM culture; settings: 1 ng/ml, 2 ng/ml and 5 ng/ml of BMP-2, 7 days after induction of osteogenesis, versus control not treated with BMP-2; FIG. 4
Method: After 3 days and 7 days of the culturing, samples were washed twice with a PBS solution, and dissolved in a cell lysis buffer to which 0.1% Triton X-10 was added.
Lysed cells were centrifuged at 4° C. and 13000 rpm for 30 minutes, and then a supernatant was recovered and quantitated by a Bradford assay. The ALP activity was measured at 405 nm for the same amount of proteins using an ALP kit (AnaSpec), and the results are shown in FIG. 3.

For Nc1nc2[nH]cnc2c(=S)[nH]1 [Example 6-TG, 6-tioguanine], the “cell survival under 6-TG treatment” value [1] was “more cells survived”.
Nc1nc(O)c2ncn(COC(CO)CO)c2n1 [ganciclovir] was tested, and the “cell growth / number of cells under gancyclovir” value [2] was “cell growth is inhibited”.
In the case of BMP-2, the “ALP activity of normal TDF cell line with BMP-2 injected from the outside” value [3] is reported as “statistically significant ALP activity was not observed”.
